# Reference: ChEMBL document CHEMBL3774345, “Synthesis of new diarylamides with pyrimidinyl pyridine scaffold and evaluation of their anti-proliferative effect on cancer cell lines” (Bioorg Med Chem Lett, 2016)
# Tests used:
# Type in all cases: functional
# [1] = Cytotoxicity against human IGROV1 cells assessed as cell growth at 10 uM after 24 hrs by SRB assay; conditions: IGROV-1, 24 h, read-out: Activity
# [2] = Cytotoxicity against human UACC62 cells assessed as cell growth at 10 uM after 24 hrs by SRB assay; conditions: UACC-62, 24 h, read-out: Activity
# [3] = tested on: MDA-MB-468; test: Cytotoxicity against human MDA-MB-468 cells assessed as cell growth at 10 uM after 24 hrs by SRB assay; conditions: MDA-MB-468, 24 h, read-out: Activity
# [4] = tested on: CCRF-CEM; test: Cytotoxicity against human CCRF-CEM cells assessed as cell growth at 10 uM after 24 hrs by SRB assay; conditions: read-out: Activity
# [5] = Cytotoxicity against human OVCAR4 cells assessed as cell growth at 10 uM after 24 hrs by SRB assay; conditions: OVCAR-4, 24 h, read-out: Activity
# [6] = Cytotoxicity against human SNB19 cells assessed as cell growth at 10 uM after 24 hrs by SRB assay; conditions: SNB-19, 24 h, read-out: Activity
# [7] = Cytotoxicity against human OVCAR3 cells assessed as cell growth at 10 uM after 24 hrs by SRB assay; conditions: OVCAR-3, 24 h, read-out: Activity
# [8] = Cytotoxicity against human SF539 cells assessed as cell growth at 10 uM after 24 hrs by SRB assay; conditions: SF-539, 24 h, read-out: Activity
# [9] = Cytotoxicity against human COLO205 cells assessed as cell growth at 10 uM after 24 hrs by SRB assay; conditions: COLO 205, 24 h, read-out: Activity
# [10] = tested on: Malme-3M; test: Cytotoxicity against human MALME-3M cells assessed as cell growth at 10 uM after 24 hrs by SRB assay; conditions: read-out: Activity
# [11] = Cytotoxicity against human SKOV3 cells assessed as cell growth at 10 uM after 24 hrs by SRB assay; conditions: SK-OV-3, 24 h, read-out: Activity
# [12] = Cytotoxicity against human PC3 cells assessed as cell growth at 10 uM after 24 hrs by SRB assay; conditions: PC-3, 24 h, read-out: Activity
# [13] = tested on: MDA-MB-435; test: Cytotoxicity against human MDA-MB-435 cells assessed as cell growth at 10 uM after 24 hrs by SRB assay; conditions: MDA-MB-435, 24 h, read-out: Activity
# [14] = tested on: A498; test: Cytotoxicity against human A498 cells assessed as cell growth at 10 uM after 24 hrs by SRB assay; conditions: A498, 24 h, read-out: Activity
# [15] = Cytotoxicity against human HOP62 cells assessed as cell growth at 10 uM after 24 hrs by SRB assay; conditions: HOP-62, 24 h, read-out: Activity
# [16] = tested on: MDA-MB-231; test: Cytotoxicity against human MDA-MB-231 cells assessed as cell growth at 10 uM after 24 hrs by SRB assay; conditions: MDA-MB-231, 24 h, read-out: Activity
# [17] = tested on: HT-29; test: Cytotoxicity against human HT-29 cells assessed as cell growth at 10 uM after 24 hrs by SRB assay; conditions: HT-29, 24 h, read-out: Activity
# [18] = Cytotoxicity against human RXF393 cells assessed as cell growth at 10 uM after 24 hrs by SRB assay; conditions: RXF 393, 24 h, read-out: Activity
# [19] = Cytotoxicity against human HCT116 cells assessed as cell growth at 10 uM after 24 hrs by SRB assay; conditions: HCT-116, 24 h, read-out: Activity
# [20] = tested on: M14; test: Cytotoxicity against human M14 cells assessed as cell growth at 10 uM after 24 hrs by SRB assay; conditions: M14, 24 h, read-out: Activity
# [21] = Cytotoxicity against human HCC2998 cells assessed as cell growth at 10 uM after 24 hrs by SRB assay; conditions: HCC 2998, 24 h, read-out: Activity
# [22] = tested on: EKVX; test: Cytotoxicity against human EKVX cells assessed as cell growth at 10 uM after 24 hrs by SRB assay; conditions: read-out: Activity
# [23] = Cytotoxicity against human OVCAR8 cells assessed as cell growth at 10 uM after 24 hrs by SRB assay; conditions: OVCAR-8, 24 h, read-out: Activity
# [24] = Cytotoxicity against human UO31 cells assessed as cell growth at 10 uM after 24 hrs by SRB assay; conditions: UO-31, 24 h, read-out: Activity
# [25] = tested on: SK-MEL-2; test: Cytotoxicity against human SK-MEL-2 cells assessed as cell growth at 10 uM after 24 hrs by SRB assay; conditions: SK-MEL-2, 24 h, read-out: Activity
# [26] = tested on: SK-MEL-5; test: Cytotoxicity against human SK-MEL-5 cells assessed as cell growth at 10 uM after 24 hrs by SRB assay; conditions: SK-MEL-5, 24 h, read-out: Activity
# [27] = Cytotoxicity against human LOXIMVI cells assessed as cell growth at 10 uM after 24 hrs by SRB assay; conditions: LOX IMVI, read-out: Activity
# [28] = tested on: T47D; test: Cytotoxicity against human T47D cells assessed as cell growth at 10 uM after 24 hrs by SRB assay; conditions: read-out: Activity
# [29] = tested on: NCI-H322M; test: Cytotoxicity against human NCI-H322M cells assessed as cell growth at 10 uM after 24 hrs by SRB assay; conditions: read-out: Activity
# [30] = Cytotoxicity against human HOP92 cells assessed as cell growth at 10 uM after 24 hrs by SRB assay; conditions: HOP-92, 24 h, read-out: Activity
# [31] = tested on: 786-0; test: Cytotoxicity against human 786-0 cells assessed as cell growth at 10 uM after 24 hrs by SRB assay; conditions: 786-0, 24 h, read-out: Activity
# [32] = tested on: NCI-H460; test: Cytotoxicity against human NCI-H460 cells assessed as cell growth at 10 uM after 24 hrs by SRB assay; conditions: NCI-H460, 24 h, read-out: Activity
# [33] = Cytotoxicity against human Hs 578T cells assessed as cell growth at 10 uM after 24 hrs by SRB assay; conditions: read-out: Activity
# [34] = tested on: MCF7; test: Cytotoxicity against human MCF7 cells assessed as cell growth at 10 uM after 24 hrs by SRB assay; conditions: MCF7, 24 h, read-out: Activity
# [35] = tested on: A549; test: Cytotoxicity against human A549 cells assessed as cell growth at 10 uM after 24 hrs by SRB assay; conditions: A549, 24 h, read-out: Activity
# [36] = tested on: KM12; test: Cytotoxicity against human KM12 cells assessed as cell growth at 10 uM after 24 hrs by SRB assay; conditions: KM12, 24 h, read-out: Activity
# [37] = Cytotoxicity against human RPMI8226 cells assessed as cell growth at 10 uM after 24 hrs by SRB assay; conditions: RPMI-8226, 24 h, read-out: Activity
# [38] = Cytotoxicity against human TK10 cells assessed as cell growth at 10 uM after 24 hrs by SRB assay; conditions: TK-10, 24 h, read-out: Activity
# [39] = tested on: U-251; test: Cytotoxicity against human U251 cells assessed as cell growth at 10 uM after 24 hrs by SRB assay; conditions: U-251, 24 h, read-out: Activity
SMILES,growth at 10 µM [1] [%],growth at 10 µM [2] [%],growth at 10 µM [3] [%],growth at 10 µM [4] [%],growth at 10 µM [5] [%],growth at 10 µM [6] [%],growth at 10 µM [7] [%],growth at 10 µM [8] [%],growth at 10 µM [9] [%],growth at 10 µM [10] [%],growth at 10 µM [11] [%],growth at 10 µM [12] [%],growth at 10 µM [13] [%],growth at 10 µM [14] [%],growth at 10 µM [15] [%],growth at 10 µM [16] [%],growth at 10 µM [17] [%],growth at 10 µM [18] [%],growth at 10 µM [19] [%],growth at 10 µM [20] [%],other results
COCCCNc1nc(NC(=O)c2cc(Br)cc(C(F)(F)F)c2)cc(-c2cccnc2)n1,91.3,90.5,82.8,80.8,92.3,95.9,109,94,96.4,99.7,92.2,70.6,88.4,76.2,91.8,75.8,83.7,103,85.6,96.5,growth at 10 µM [21]: 114%; growth at 10 µM [22]: 96%; growth at 10 µM [23]: 87.5%; growth at 10 µM [24]: 60.5%; growth at 10 µM [25]: 80.6%; growth at 10 µM [26]: 70.6%; growth at 10 µM [27]: 104%; growth at 10 µM [28]: 65%; growth at 10 µM [29]: 99.9%; growth at 10 µM [30]: 57.9%; growth at 10 µM [31]: 85.8%; growth at 10 µM [32]: 85.7%; growth at 10 µM [33]: 83%; growth at 10 µM [34]: 83.8%; growth at 10 µM [35]: 82%; growth at 10 µM [36]: 105%; growth at 10 µM [37]: 65.6%; growth at 10 µM [38]: 95.8%; growth at 10 µM [39]: 85.9%
COc1cc(OC)cc(C(=O)Nc2cc(-c3cccnc3)nc(NCCCN3CCOCC3)n2)c1,97.4,97.6,83.2,90.8,117,98.7,105,91.1,94.3,110,93.9,85.4,102,83.3,87.8,79.6,85.2,93.9,89.2,104,growth at 10 µM [21]: 123%; growth at 10 µM [22]: 103%; growth at 10 µM [23]: 91.8%; growth at 10 µM [24]: 53.6%; growth at 10 µM [25]: 84.1%; growth at 10 µM [26]: 68.3%; growth at 10 µM [27]: 88.1%; growth at 10 µM [28]: 72.8%; growth at 10 µM [29]: 90.9%; growth at 10 µM [30]: 67.7%; growth at 10 µM [31]: 84%; growth at 10 µM [32]: 95.3%; growth at 10 µM [33]: 69%; growth at 10 µM [34]: 88%; growth at 10 µM [35]: 92.6%; growth at 10 µM [36]: 104%; growth at 10 µM [37]: 79.1%; growth at 10 µM [38]: 95.5%; growth at 10 µM [39]: 90.5%
